Data as given in patent publication US5002963A, “3-indolepyruvic acid derivatives and pharmaceutical use thereof” (priority 1987, dated 1991).

Tests used:
[1] = system: Brain homogenate; assay: Test 2: transformation into kynurenic acid in tissue homogenates (brain); assay type: in vitro ADME, rats; settings: for Amount of kynurenic acid formed: brain homogenate
Procedure: (§1) Male rats fasting for 16 hours were sacrificed and their organs were taken and homogenized in 5 volumes of 0,05 M phosphate buffer pH 7,4+0,14 M KCl.
(§2) Small amounts of homogenate (0,8 ml) were additioned with various amounts of 3-indolepyruvic acid or the derivatives thereof, dissolved into a buffer solution, and with a system for the production of free radicals, consisting of ascorbic acid (final 10^-5 M), FeCl3 (final 10^-6 M) and H2 O2 (final 10^-4 M). It was stirred at 37° C., then the reaction was blocked.

[2] = system: NMDA induced convulsions; settings: cited from earlier work
[3] = system: audiogenic convulsions in DBA2 mice; assay: Test 6: audiogenic convulsions in DBA2 mice; assay type: in vivo
Procedure: To evaluate whether an increase in kynurenic acid in the brain after administration of IPA could have a protective action on neurons stressed by excitatory aminoacids, the experimental pattern of inducing convulsions in a particular strain of mice (DBA2) by selected sound stimulations was followed. […] The substances were injected intravenously one hour before the test. Then the number of animals showing tonic convulsions was measured.

[4] = system: tryptophan and kynurenic acid in the brain of rats; settings: rat, in vivo, ip, 250 mg/kg
Text: (§3) For the measurement of such levels after administration of 3-indolepyruvic acid or a derivative thereof, a system was set up based on ultraviolet detection of the compounds separated by high pressure liquid chromatography.
(§4) Briefly, after sacrific of the animal, some of the principal organs were taken and homogenized with alkaline ethanol. Proteins and cell remains were removed by centrifugation, whilst the over natant was adsorbed on Bio-Rad AG 1×8 resin. After washing with water it was eluted with formic acid. It was then passed on Bio-Rad AG 50W-×8 resin, eluted with 3% ammonia, dried and retaken with a small amount of water.
(§5) The sample thus obtained was injected into a Waters apparatus for high pressure liquid chromatography, using a C18 10 micron column and eluting with 0,02 m citric acid containing 10% of methanol. The kynurenic acid levels were extrapolated by the calibration line of the acid and reading at 234 nm.
Male rats were treated with saline solution (controls), IPA or tryptophan i.p. one hour before sacrifice. Each lot was of six animals.
The reported values are in picomoles/g for kynurenic acid and picomoles/mg for tryptophan.

[5] = system: kynurenic acid; assay: Test 3: effect on the content of kynurenic acid after administration of IPA in rat; assay type: in vivo; settings: rat, in vivo
Text: as §3, §4, §5
Male rats were treated with saline solution (controls) or with various doses of IPA, which was injected 3 hours before sacrifice. Each lot comprised 10 animals.
The results are reported in picomoles/g of tissue (or ml of blood)±standard error.

[6] = system: Kidney homogenate; assay: Test 2: transformation into kynurenic acid in tissue homogenates (kidney); assay type: in vitro ADME, rats; settings: final 1.6 mg
Procedure: as §1, §2

[7] = system: audiogenic convulsions in DBA2 mice; settings: known effect of kynurenic acid; cited from earlier work
[8] = system: excitatory aminoacids; settings: cited from earlier work; for agonism of excitatory aminoacids (in words): central nervous system of mammals

For COC(=O)C(=O)Cc1c[nH]c2ccccc12 [IPA-Methylester, 3-indolepyruvic acid methyl ester], the “Amount of kynurenic acid formed” value ([1]; amount not given, 30') was 48 ng, the “Amount of kynurenic acid formed” value ([1]; amount not given, 60') was 65 ng and the “Amount of kynurenic acid formed” value ([1]; amount not given, 120') was 83 ng.
For COC(=O)C(Cc1ccccc1)NC(=O)C(=O)Cc1c[nH]c2ccccc12 (stereo not drawn) [IPE-PHE-Ome, 3indolepyruvic acid phenylalanine methylester], the “Amount of kynurenic acid formed” value ([1]; amount not given, 30') was 75 ng, the “Amount of kynurenic acid formed” value ([1]; amount not given, 60') was 82 ng and the “Amount of kynurenic acid formed” value ([1]; amount not given, 120') was 92 ng.
For COC(=O)C(Cc1ccc(O)cc1)NC(=O)C(=O)Cc1c[nH]c2ccccc12 (stereo not drawn) [IPE-TYR-Ome, 3indolepyruvic acid tyrosine methylester], the “Amount of kynurenic acid formed” value ([1]; amount not given, 30') was 44 ng, the “Amount of kynurenic acid formed” value ([1]; amount not given, 60') was 48 ng and the “Amount of kynurenic acid formed” value ([1]; amount not given, 120') was 79 ng.
In the case of CN[C@H](CC(=O)O)C(=O)O [NMDA, N-methyl-D-aspartic acid], the “neurotoxic effect (in words)” value ([2]; activation of receptors of the excitatory aminoacids) is listed as “powerful neurotoxic effect”.
With N[C@@H](Cc1c[nH]c2ccccc12)C(=O)O [Tryptophan, tryptophan, reference compound] the “Animals with convulsions, %” value ([3]; 200 mg/Kg intravenously, one hour before the test) was 80%, the Animals with convulsions ([3]; 200 mg/Kg intravenously, one hour before the test, number/total) was 8/10 and the “protective action against tonic convulsions induced by sound stimulations (in words)” value ([3]; DBA2 mice) was “no effective action”. The “KYN/TRP × 10^3” value [4] was 0.16, the “increase in the levels of kynurenic acid in the tissues (in words)” value [5] was “does not produce such an effect” and the “transformation into kynurenic acid in brain homogenate (in words)” value [1] was “never transformed into kynurenic acid”. The “Amount of kynurenic acid formed” value ([1]; 1.6 mg, 30') was 0 ng, the “Amount of kynurenic acid formed” value ([1]; 1.6 mg, 60') was 0 ng and the “Amount of kynurenic acid formed” value ([1]; 1.6 mg, 120') was 0 ng. For the same compound, the “Amount of kynurenic acid formed” value ([6]; 30') was 55 ng, the “Amount of kynurenic acid formed” value ([6]; 60') was 82 ng and the “Amount of kynurenic acid formed” value ([6]; 120') was 111 ng.
For O=C(O)c1cc(=O)c2ccccc2[nH]1 [kynurenic acid], the “protection against audiogenic convulsions (in words)” value [7] is listed as “protective against convulsions”, the “inhibition of the excitatory effects of quinolinic acid, N-methyl-D-aspartate and other aminoacids (in words)” value [8] is listed as “powerful inhibitor” and the “protection against the toxicity due to NMDA (in words)” value ([2]; well known effect of kynurenic acid) is listed as “protects against the toxicity due to NMDA”.
In the case of Nc1ccccc1C(=O)CC(N)C(=O)O (stereo not drawn) [kynurenine], the “agonism of excitatory aminoacids (in words)” value [8] is given as “powerful agonists of excitatory aminoacids”.
In the case of O=C(O)c1cccnc1C(=O)O [quinolinic acid], the “agonism of excitatory aminoacids (in words)” value [8] is listed as “powerful agonists of excitatory aminoacids”.
